Source: article PMC8533333, “Melatonin Analogues Potently Inhibit MAO-B and Protect PC12 Cells against Oxidative Stress” (Antioxidants, 2021)

Tests used:
[1] = target: T1, Human recombinant MAO-A (hMAO-A) (Homo sapiens, UniProt P21397); experiment: MAO-A enzyme assay (Amplex Red), selectivity; type: biochemical
T1 construct: purchased Sigma Aldrich; host or cells: insect cells
T1 sequence (P21397 1-527): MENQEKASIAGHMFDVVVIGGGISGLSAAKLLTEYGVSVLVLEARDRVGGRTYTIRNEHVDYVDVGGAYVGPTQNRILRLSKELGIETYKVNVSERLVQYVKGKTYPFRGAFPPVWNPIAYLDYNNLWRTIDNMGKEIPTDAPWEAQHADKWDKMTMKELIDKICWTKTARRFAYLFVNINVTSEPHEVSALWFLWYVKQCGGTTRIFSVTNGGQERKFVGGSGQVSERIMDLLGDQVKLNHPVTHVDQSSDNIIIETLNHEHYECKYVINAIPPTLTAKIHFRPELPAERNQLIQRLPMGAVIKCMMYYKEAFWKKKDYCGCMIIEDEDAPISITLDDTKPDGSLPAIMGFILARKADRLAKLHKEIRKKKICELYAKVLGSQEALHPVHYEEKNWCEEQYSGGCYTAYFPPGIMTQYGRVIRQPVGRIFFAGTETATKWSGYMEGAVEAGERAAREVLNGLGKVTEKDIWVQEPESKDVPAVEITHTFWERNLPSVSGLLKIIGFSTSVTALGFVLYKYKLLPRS
Procedure: Biological evaluation of the synthesized melatonin derivatives over both MAO-A and MAO-B was performed as reported previously. A detailed description of the protocol is in the Supplementary Materials.
6. Materials and methods of monoamine oxidase (MAO) enzyme assay
The inhibitory activity of MAO-A, B enzyme of the compounds was evaluated based on previously described method. The MAO activity was measured in relative fluorescence units (RFU) evoked by peroxidase-catalyzed oxidation of Amplex Red® to resorufin, in which H2O2 generated by MAO reaction was used as the […]. Human recombinant MAO-A (hMAO-A) and MAO-B (hMAO-B) enzyme expressed in insect cells were obtained from Sigma Aldrich. The 2 μL of test compound in DMSO (final concentration: 1 nM – 10 μM) was treated with 98 μL of hMAO enzyme solution in 50 mM sodium phosphate buffer (pH 7.4, final protein amounts: ~1.25 μg protein/well for MAO-A and ~2.5 μg protein/well for MAO -B) on 96-well black plate and incubated for 15 min at 37 °C. Then 100 μL of reaction working solution which is mixed solution of 400 μM Amplex Red® (Cayman, final concentration: 200 μM), 2 U/mL horseradish peroxidase ( Sigma-Aldrich, final concentration: 1 U/mL) and 2 mM substrate ( p-tyramine for MAO -A, benzylamine for MAO -B, Sigma-Aldrich, final concentration: 1 mM) in 50 mM sodium phosphate buffer (pH 7.4) were added and incubated for 20 min at 37 °C in the dark. The fluorescent intensity was quantified using a microplate reader (SpectraMax®i3, Molecular Device) with an excitation at 545 nm and an emission at 590 nm. The 50% inhibitory concentrations (IC50) of compounds were determined as the mean ± S.E.M. in triplicate from the dose-response inhibition curves using SigmaPlot® 13.0.
monoamine oxidase inhibitors. Bioorganic & medicinal chemistry 2015, 23, 6486-6496,

[2] = system: LPO in rat brain homogenates; experiment: Lipid peroxidation (LPO) induced by Fe2+ and L-ascorbic acid in rat forebrain homogenates; type: biochemical; details: 100 μM; Fe2+ 10 µM and L-ascorbic acid 100 µM
Procedure: The effects of the investigated compounds on the LPO levels in rat forebrain homogenates were evaluated as previously described. Sprague–Dawley (SD) rats were obtained from Daehan Biolink (Chungbuk, Korea) and maintained in the animal facility with controlled temperature (22 ± 2 °C) and relative humidity (40–60%). All the experimental steps and protocols of the animal experiments were approved by the Institutional Animal Ethical Committee of Dongguk University (Approval Number: IACUC-2019-001-2). To initiate LPO reaction, 3–4 mg protein/mL diluent of SD rat forebrain homogenates in 20 mM Tris-HCl buffer (pH 7.4) and several concentrations of the tested compounds dissolved in DMSO were added to a reaction mixture with 10 µM Fe^2+ and 100 µM L-ascorbic acid and incubated for 60 min at 37 °C. After halting the reaction by adding 28% w/v trichloroacetic acid and 1% w/v TBA in succession, the solution was heated for 15 min at 100 °C, which was followed by centrifugation at 3000 rpm for 10 min at 4 °C to separate the precipitates. […] The percentage of inhibition was calculated by the following formula:Inhibition (%) = 100 × (1 − Abssample/Abscontrol) (Abscontrol, the absorbance of control without tested compounds; Abssample, the absorbance of sample with tested compounds). […]

HO-1 = HO-1 protein expression in PC12 cells (Western blotting); type: cell-based, rat; details: for HO-1 protein expression over time: 10 μM, 1 to 12 h, significant at 6–12 h; for increase in HO-1 expression: 30 μM, 12 h
Procedure: (§1) PC12 cells were seeded on 35 mm dishes at a density of 2 × 10^6 cells/dish and kept at 37 °C in humidified incubator for at least 24 h. Cells were treated with a series of concentrations of the tested compounds for 12 h or with the tested compounds (10 μM) for the indicated time points. Control cells were treated with serum-free media containing 0.3% DMSO instead. Total cell lysates were prepared according to the methods described previously, and stored at −20 °C until used. To evaluate the effects of the tested compounds on the nuclear translocation of Nrf2, nuclear fraction was separated from cytosolic fraction using NE-PER Nuclear and Cytoplasmic Extraction Reagents (Rockford, IL, USA), following the manufacturer’s directions. The protein concentrations were assessed using a BioRad DC protein assay kit (BioRad, Hercules, CA, USA). Equal amounts of proteins (20 µg) were resolved on 12% or 8% gels via sodium dodecyl sulfate-polyacrylamide gel electrophoresis and electrophoretically transferred onto nitrocellulose membrane (Whatman, Clifton, NJ, USA). Subsequently, immunoblotting was performed using anti-HO-1 or anti-Nrf2 antibodies, respectively, according to the procedures reported previously. Beta-actin, a highly conserved cytoskeletal protein, was used as a loading control of cell lysates to normalize the level of HO-1, while nuclear protein lamin B was used as a nuclear loading control to normalize the level of Nrf2 in the nuclear fraction. Finally, the immunoreactive bands corresponding to HO-1 or Nrf2 proteins were visualized using Clarity^TM Western ECL substrate (Bio-Rad, Hercules, CA, USA) using the BioRad ChemiDoc XRS imaging system (Bio-Rad, Hercules, CA, USA).

Nrf2 = experiment: Nuclear translocation of Nrf2 in PC12 cells (Western blotting); type: cell-based, rat; details: for time of peak Nrf2 protein expression: 10 μM; for nuclear translocation of Nrf2: PC12 nuclear fraction, Western blotting
Procedure: as §1
Nrf2 is a transcription factor involved in the expression of antioxidant defense enzymes in response to oxidative stress. Upon nuclear translocation, Nrf2 binds to antioxidant response elements (AREs), leading to the transcription of ARE genes such as HO-1 [111]. […] Nrf2 protein expression peaked after 6 h of treatment with each compound at 10 μM (Figure 15A,B). […] The nuclear translocation of Nrf2 was increased by 3n and 3r in concentration-dependent manners (Figure 16C,D).

Row | Structure (SMILES) | IC50 [1] [µM] | inhibition of lipid peroxide formation (LPO) [2] [%] | HO-1 protein expression over time (HO-1) | increase in HO-1 expression (HO-1) [fold] | time of peak Nrf2 protein expression (Nrf2) [h] | nuclear translocation of Nrf2 (Nrf2)
1 | O=C(Nc1ccc2[nH]ccc2c1)c1cccc(Cl)c1 [3n, 3-Chloro-N-(1H-indol-5-yl)benzamide] | > 100 | 23.5 ± 1.7 | time-dependent increases | 1.6 | 6 | increased
2 | O=C(Nc1ccc2[nH]ccc2c1)c1cccc(Br)c1 [3r, 3-Bromo-N-(1H-indol-5-yl)benzamide] | > 100 | 44.4 ± 2.2 | time-dependent increases | 1.7 | 6 | increased
